Reference: US9695198B2, “Factor IXa inhibitors” (MERCK SHARP & DOHME CORP., priority 2012, dated 2017)

Target: Factor IXa (Homo sapiens, UniProt P00740)
Assay: Determination of inhibitory activity against Factor IXa (cleavage of fluorescent peptide CH3SO2-D-CHG-Gly-Arg-AFC)
Type: biochemical
Settings: Factor IXa Inhibition table; low enzyme format; read-out: FIXa Low Enzyme
Description: Determination of Inhibitory Activity Against Factor IXa
Formation of a clot to stem bleeding at a site of blood vessel injury involves the coordinated activity of a group of plasma proteins that initiate and propagate fibrin formation and subsequently protect fibrin from premature degradation. Factor IX is a key component of the plasma system that forms a fibrin clot at a site of vascular injury. The activity of Factor IXa is measured by monitoring the cleavage of the fluorescent peptide, CH3SO2-D-CHG-Gly-Arg-AFC.AcOH (“CHG” is cyclohexyl-glycine and “AFC” is trifluoro aminomethyl coumarin). Factor IXa cleaves the amide bond between Arg and AFC, thereby releasing the AFC fluorophore. The free AFC can be detected with a fluorescence detector at an excitation wavelength of 405 nm and emission wavelength of 510 nm.

Factor IXa, sequence (P00740 227-461 limits assumed): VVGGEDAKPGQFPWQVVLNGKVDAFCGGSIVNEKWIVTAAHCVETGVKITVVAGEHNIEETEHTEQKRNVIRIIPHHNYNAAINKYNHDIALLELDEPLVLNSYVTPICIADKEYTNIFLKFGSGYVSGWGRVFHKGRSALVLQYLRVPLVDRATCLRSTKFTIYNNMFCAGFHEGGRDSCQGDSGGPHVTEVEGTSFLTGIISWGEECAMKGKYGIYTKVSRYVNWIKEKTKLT
Factor IXa, sequence (P00740 47-191 partner limits assumed): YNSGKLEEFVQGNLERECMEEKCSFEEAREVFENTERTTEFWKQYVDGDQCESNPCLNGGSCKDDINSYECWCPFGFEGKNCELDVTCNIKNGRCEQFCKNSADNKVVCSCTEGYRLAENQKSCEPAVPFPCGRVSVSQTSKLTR

Row | SMILES | IC50
1 | N#Cc1ccc(-n2ccc(N3CCO[C@H]([C@@H](O)c4nc(=O)c5c(ccc6c(N)nsc65)[nH]4)C3=O)n2)cc1 [Example 12, 4-(3-((R)-2-((S)-(3-Amino-9-oxo-6,9-dihydroisothiazolo[5,4-f]quinazolin-7-yl)(hydroxy)methyl)-3-oxomorpholino)-1H-pyrazol-1-yl)benzonitrile] | 3.07 nM
2 | CC(C)(O)c1cccc(N2CCO[C@H]([C@@H](O)c3nc(=O)c4c(ccc5c(N)nsc54)[nH]3)C2=O)n1 [Example 21, (R)-2-((S)-(3-Amino-9-oxo-6,9-dihydroisothiazolo[5,4-f]quinazolin-7-yl)(hydroxy)methyl)-4-(6-(2-hydroxypropan-2-yl)pyridin-2-yl)morpholin-3-one] | 12.3 nM
